{
  "source": "patent US10219515B2",
  "about": "“Agrochemical adjuvant containing 2-oxo-1,3-dioxolan-4 carboxylates” (BASF SE, priority 2014, dated 2019)",
  "origin": "cited, not measured here",
  "note": "Read-outs that look alike come from different tables or passages of the source.",
  "data": [
    {"smiles": "O=C(O)CNCP(=O)(O)O", "note": "[glyphosate]", "values": [
      {"measurement": "acid dissociation constant pKa", "setting": "amine", "result": "~11.0"},
      {"measurement": "acid dissociation constant pKa", "setting": "carboxylic acid", "result": "~2.3"},
      {"measurement": "acid dissociation constant pKa", "setting": "first phosphonic acid", "result": "~0.8"},
      {"measurement": "acid dissociation constant pKa", "setting": "second phosphonic acid", "result": "~6.0"}
    ]}
  ]
}
